Here are results for two molecules from patent US20230241063A1, “METHODS OF TREATING PROSTATE CANCER” (Celgene Quanticel Research, Inc., priority 2020, published 2023).

The structures appear in SMILES notation. Entries after “also recorded” stand apart in the source; their conditions may differ.

One assay has as its system VCaP cells. In words: Proliferation assay (Cell Titer-Glo) in VCaP cells. In kind it is cell-based, human. The conditions noted are these: 3 days; enzalutamide 10 uM in the combination.
For another assay, the system named is PC3 cells. In words: Proliferation assay (Cell Titer-Glo) in PC3 cells. In kind it is cell-based, human. The conditions noted are these: single agent, 3 days, CellTiter Glo. (Cellular ATP, detected with luciferase, serves as a proxy for viable cell number.)
A further assay concerns LNCaP-AR cells. Kind of assay: Proliferation assay (Cell Titer-Glo) in LNCaP-AR cells. It counts as cell-based, human. The conditions noted are these: single agent, 3 days.
Assay [1] concerns Krt8. In words: Krt8 gene expression by qPCR in TKO cells. In kind it is cell-based, mouse. To be noted: single agent, 8 days.
Assay [2] relates to LNCaP-AR CRISPRi TP53/RB1 cells. Kind of assay: Proliferation assay (Cell Titer-Glo) in LNCaP-AR CRISPRi TP53/RB1 cells. The conditions noted are these: single agents, 6 days, LNCaP_AR guideTP53/RB1 cells. In kind it is cell-based, human.
In another assay the test system is LNCaP cells. In words: Proliferation assay (Cell Titer-Glo) in LNCaP cells. The conditions noted are these: single agent, 6 days. In kind it is cell-based, human.
For assay [3], the system named is Krt8. In words: Krt8 gene expression by qPCR in DKO cells. In kind it is cell-based, mouse. To be noted: 8 days, enzalutamide 10 uM in the combination. (In general: In qPCR the cycle at which signal appears reflects the starting amount.)
The subject of the next assay is DKO cells. Kind of assay: Proliferation assay (Cell Titer-Glo) in DKO cells. It counts as cell-based, mouse. To be noted: Compound A alone.
The subject of the next assay is TKO cells. In words: Proliferation assay (Cell Titer-Glo) in TKO cells. The conditions noted are these: Compound A alone. It counts as cell-based, mouse.

For `COc1ccc(-c2c(-c3ccc(C#N)c(F)c3)nc(N3CCC(N)CC3)n(C)c2=O)cc1F` [Compound A, 4-[2-(4-amino-piperidin-1-yl)-5-(3-fluoro-4-methoxy-phenyl)-1-methyl-6-oxo-1,6-dihydro-pyrimidin-4-yl]-2-fluoro-benzonitrile], the “effect on proliferation of VCaP cells” value in the assay with VCaP cells is on record as “no effect on proliferation; also recorded: did not affect proliferation”. Besides, the “effect on cell proliferation of PC3 cells” value in the assay on PC3 cells is listed as “did not affect cell proliferation; also recorded: does not affect cell proliferation”. The “effect on cell proliferation” value with LNCaP-AR cells was “no effect on cell proliferation”. In addition, the “concentration of Compound A able to induce the expression of Krt8” value in the assay on Krt8 [1] was not below 1 µM. Besides, in assay [2], the effect on proliferation result is reported as “do not affect proliferation; also recorded: did not affect proliferation”. In addition, the “effect on proliferation of LNCaP cells” value in the assay on LNCaP cells is reported as “no effect on proliferation; also recorded: did not affect proliferation”. Also, in the assay on Krt8 [3], the “induction of Keratin8 (Krt8) expression” value was 1.5 fold. The “effect on DKO cell proliferation” value in the assay on DKO cells was “mild effect”. For the same molecule, in the assay on TKO cells, the “effect on TKO cell proliferation” value was “mild effect”.

In the case of `CNC(=O)c1ccc(N2C(=S)N(c3ccc(C#N)c(C(F)(F)F)c3)C(=O)C2(C)C)cc1F` [enzalutamide, 4-{3-[4-cyano-3-(trifluoromethyl)phenyl]-5,5-dimethyl-4-oxo-2-sulfanylideneimidazolidin-1-yl}-2-fluoro-N-methylbenzamide, reference compound], in the assay on PC3 cells, the “effect on cell proliferation of PC3 cells” value is “resistant”. Also, the effect on proliferation entry in assay [2] is given as “do not affect proliferation”; in [2] (listed as ENZA), “did not affect proliferation”.
